From US10183946B2, “Triazolo[4,5-D]pyrimidines” (Hoffmann—La Roche Inc., priority 2014, dated 2019) come the findings set out here.

For orientation: EC50 means the concentration that produces a half-maximal response.

Experiment [1] addresses human CB2 receptors (Homo sapiens (Human), UniProt P34972). In words: cAMP assay, CHO cells expressing human CB2 receptors. The following applies: functional cAMP assay, read-out: CB2 hcAMP EC50. It counts as cell-based. The method, then:
(§1) CHO cells expressing human CB1 or CB2 receptors are seeded 17-24 hours prior to the experiment 50.000 cells per well in a black 96 well plate with flat clear bottom (Corning Costar #3904) in DMEM (Invitrogen No. 31331), 1×HT supplement, with 10% fetal calf serum and incubated at 5% CO2 and 37° C. in a humidified incubator. The growth medium was exchanged with Krebs Ringer Bicarbonate buffer with 1 mM IBMX and incubated at 30° C. for 30 min. Compounds were added to a final assay volume of 100 μl and incubated for 30 min at 30° C. Using the cAMP-Nano-TRF detection kit the assay (Roche Diagnostics) was stopped by the addition of 50 μl lysis reagent (Tris, NaCl, 1.5% Triton X100, 2.5% NP40, 10% NaN3) and 50 μl detection solutions (20 μM mAb Alexa700-cAMP 1:1, and 48 μM Ruthenium-2-AHA-cAMP) and shaken for 2 h at room temperature. The time-resolved energy transfer is measured by a TRF reader (Evotec Technologies GmbH), equipped with a ND:YAG laser as excitation source. The plate is measured twice with the excitation at 355 nm and at the emission with a delay of 100 ns and a gate of 100 ns, total exposure time 10 s at 730 (bandwidth 30 nm) or 645 nm (bandwidth 75 nm), respectively. The FRET signal is calculated as follows: FRET=T730-Alexa730-P(T645-B645) with P=Ru730-B730/Ru645-B645, where T730 is the test well measured at 730 nM, T645 is the test well measured at 645 nm, B730 and B645 are the buffer controls at 730 nm and 645 nm, respectively. cAMP content is determined from the function of a standard curve spanning from 10 μM to 0.13 nM cAMP.
(§2) EC50 values were determined using Activity Base analysis (ID Business Solution, Limited). The EC50 values for a wide range of cannabinoid agonists generated from this assay were in agreement with the values published in the scientific literature.

In experiment [2] the target is human CB1 receptors (Homo sapiens (Human), UniProt P21554). In words: cAMP assay, CHO cells expressing human CB1 receptors. The format is cell-based. The following applies: functional cAMP assay, CHO cells expressing human CB1; read-out: CB1 hcAMP EC50. As for the experimental part: as §1, §2
Chain of human CB1 receptors (P21554 whole entry): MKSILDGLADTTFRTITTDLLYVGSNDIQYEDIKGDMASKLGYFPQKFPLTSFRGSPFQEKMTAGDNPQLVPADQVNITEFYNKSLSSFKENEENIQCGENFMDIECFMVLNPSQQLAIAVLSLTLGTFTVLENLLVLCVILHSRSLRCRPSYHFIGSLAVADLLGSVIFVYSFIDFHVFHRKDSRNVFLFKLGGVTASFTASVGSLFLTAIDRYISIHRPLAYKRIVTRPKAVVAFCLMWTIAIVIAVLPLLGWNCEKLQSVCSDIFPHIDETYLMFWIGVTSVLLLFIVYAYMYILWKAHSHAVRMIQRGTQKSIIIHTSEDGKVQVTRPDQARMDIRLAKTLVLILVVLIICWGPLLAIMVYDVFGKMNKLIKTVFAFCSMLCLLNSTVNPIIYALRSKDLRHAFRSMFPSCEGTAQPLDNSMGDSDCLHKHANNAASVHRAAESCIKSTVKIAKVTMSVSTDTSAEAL
Background: Changes in cAMP serve as a functional read-out for many G protein-coupled receptors.

Chain of human CB2 receptors (P34972 whole entry): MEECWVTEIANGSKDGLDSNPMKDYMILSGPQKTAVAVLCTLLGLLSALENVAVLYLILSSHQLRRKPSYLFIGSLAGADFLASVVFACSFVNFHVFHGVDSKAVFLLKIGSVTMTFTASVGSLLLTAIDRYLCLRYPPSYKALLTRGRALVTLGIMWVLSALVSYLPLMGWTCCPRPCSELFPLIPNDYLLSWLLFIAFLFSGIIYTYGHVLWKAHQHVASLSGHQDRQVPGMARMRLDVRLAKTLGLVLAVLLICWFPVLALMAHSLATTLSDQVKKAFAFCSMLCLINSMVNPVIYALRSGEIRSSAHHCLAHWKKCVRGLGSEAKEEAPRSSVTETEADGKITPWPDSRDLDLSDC

With `Cc1ccc(-c2nc(C(C)(C)C)nc3c2nnn3Cc2ccccc2Cl)cc1` [Example 1, 5-tert-butyl-3-[(2-chlorophenyl)methyl]-7-(4-methylphenyl)triazolo[4,5-d]pyrimidine], the EC50 in experiment [1] is 206 nM; in experiment [2] it was more than 10000 nM.

Consider `CC(C)(C)c1nc(-c2ccc(F)cc2)c2nnn(Cc3ccccc3Cl)c2n1` [Example 2, 5-tert-butyl-3-[(2-chlorophenyl)methyl]-7-(4-fluorophenyl)triazolo[4,5-d]pyrimidine], for which the results for the concentration giving a half-maximal response (EC50) in experiment [1] and in experiment [2] were 28.5 nM and more than 10000 nM, respectively.

Take `CC(C)(C)c1nc(-c2ccccc2F)c2nnn(Cc3ccccc3Cl)c2n1` [Example 4, 5-tert-butyl-3-[(2-chlorophenyl)methyl]-7-(2-fluorophenyl)triazolo[4,5-d]pyrimidine]: the EC50 in experiment [1] was 65.2 nM; in experiment [2], more than 10000 nM.

With `Cn1cc(-c2nc(C(C)(C)C)nc3c2nnn3Cc2nnnn2C)cn1` [Example 24, 5-tert-butyl-7-(1-methylpyrazol-4-yl)-3-[(1-methyltetrazol-5-yl)methyl]triazolo[4,5-d]pyrimidine], the EC50 in experiment [1] is 156 nM; in experiment [2] it was more than 10000 nM.

Turning to `Cc1oncc1-c1nc(C(C)(C)C)nc2c1nnn2Cc1nnnn1C` [Example 27, 4-[5-tert-butyl-3-[(1-methyltetrazol-5-yl)methyl]triazolo[4,5-d]pyrimidin-7-yl]-5-methyl-1,2-oxazole], the concentration giving a half-maximal response (EC50) is 515 nM in experiment [1] and more than 10000 nM in experiment [2].

`Cn1nnnc1Cn1nnc2c(-c3cc[nH]n3)nc(C(C)(C)C)nc21` [Example 26, 5-tert-butyl-3-[(1-methyltetrazol-5-yl)methyl]-7-(1H-pyrazol-3-yl)triazolo[4,5-d]pyrimidine]: the EC50 was 578 nM in experiment [1] and more than 10000 nM in experiment [2].

For `Cc1oncc1-c1nc(C(C)(C)C)nc2c1nnn2Cc1ccccc1Cl` [Example 11, 4-[5-tert-butyl-3-[(2-chlorophenyl)methyl]triazolo[4,5-d]pyrimidin-7-yl]-5-methyl-1,2-oxazole], the figures for the EC50 in experiment [1] and in experiment [2] were 76.5 nM and more than 10000 nM, respectively.

As for `Cc1nonc1Cn1nnc2c(-c3ccnn3C)nc(C(C)(C)C)nc21` [Example 14, 3-[[5-tert-butyl-7-(2-methylpyrazol-3-yl)triazolo[4,5-d]pyrimidin-3-yl]methyl]-4-methyl-1,2,5-oxadiazole], the values for the EC50 in experiment [1] and in experiment [2] were 1.3 nM and more than 10000 nM, respectively.

As to `CC(C)(C)c1nc(C2(O)CCC2)c2nnn(Cc3ccccc3Cl)c2n1` [Example 33, 1-[5-tert-Butyl-3-[(2-chlorophenyl)methyl]triazolo[4,5-d]pyrimidin-7-yl]cyclobutanol], the values for the EC50 in experiment [1] and in experiment [2] were 233 nM and more than 10000 nM, respectively.

As for `CC(C)(C)c1nc(C2(CF)CC2)c2nnn(Cc3ccccc3Cl)c2n1` [Example 43, 5-tert-Butyl-3-[(2-chlorophenyl)methyl]-7-[1-(fluoromethyl)cyclopropyl]triazolo[4,5-d]pyrimidine], the EC50 in experiment [1] is 903 nM; in experiment [2], more than 10000 nM.

`CCC(O)(CC)c1nc(C(C)(C)C)nc2c1nnn2Cc1ccccc1Cl` [Example 38, 3-[5-tert-Butyl-3-[(2-chlorophenyl)methyl]triazolo[4,5-d]pyrimidin-7-yl]pentan-3-ol]: the EC50 in experiment [1] is 45.3 nM; in experiment [2], more than 10000 nM.

For the compound `CC(C)(C)c1nc(C2CCCC2)c2nnn(Cc3ccccc3)c2n1` [Example 45b, 3-benzyl-5-tert-butyl-7-cyclopentyl-triazolo[4,5-d]pyrimidine], the EC50 in experiment [1] was 30 nM; in experiment [2], more than 10000 nM.

For the compound `CC(C)(C)c1nc(C2(O)CSC2)c2nnn(Cc3ccccc3Cl)c2n1` [Example 39, 3-[5-tert-Butyl-3-[(2-chlorophenyl)methyl]triazolo[4,5-d]pyrimidin-7-yl]thietan-3-ol], the figures for the EC50 in experiment [1] and in experiment [2] were 168 nM and more than 10000 nM, respectively.

Regarding `Cn1nnnc1Cn1nnc2c(-c3ncc[nH]3)nc(C(C)(C)C)nc21` [Example 28, 5-tert-butyl-7-(1H-imidazol-2-yl)-3-[(1-methyltetrazol-5-yl)methyl]triazolo[4,5-d]pyrimidine], the EC50 in experiment [1] is 12.5 nM; in experiment [2], more than 10000 nM.

With `CC(C)(C)c1nc(C2(O)CCCC2)c2nnn(Cc3ccccc3Cl)c2n1` [Example 34, 1-[5-tert-Butyl-3-[(2-chlorophenyl)methyl]triazolo[4,5-d]pyrimidin-7-yl]cyclopentanol], the EC50 in experiment [1] is 35.3 nM; in experiment [2], more than 10000 nM.

With `CC(C)(C)c1nc(-c2ccccc2)c2nnn(Cc3ccccc3Cl)c2n1` [Example 10, 5-tert-butyl-3-[(2-chlorophenyl)methyl]-7-phenyltriazolo[4,5-d]pyrimidine], the results for the EC50 in experiment [1] and in experiment [2] were 80.2 nM and more than 10000 nM, respectively.

Consider `Cn1nnnc1Cn1nnc2c(-c3cnnn3Cc3ccccc3)nc(C(C)(C)C)nc21` [Example 29, 7-(3-benzyltriazol-4-yl)-5-tert-butyl-3-[(1-methyltetrazol-5-yl)methyl]triazolo[4,5-d]pyrimidine], for which the EC50 is 16.6 nM in experiment [1] and more than 10000 nM in experiment [2].

Regarding `CC(C)(C)c1nc(-c2ccc(F)nc2)c2nnn(Cc3ccccc3Cl)c2n1` [Example 6, 5-tert-butyl-3-[(2-chlorophenyl)methyl]-7-(6-fluoropyridin-3-yl)triazolo[4,5-d]pyrimidine], the EC50 in experiment [1] is 2.7 nM; in experiment [2] it was more than 10000 nM.

Consider `Cn1cc(-c2nc(C(C)(C)C)nc3c2nnn3Cc2ccccc2Cl)cn1` [Example 8, 5-tert-butyl-3-[(2-chlorophenyl)methyl]-7-(1-methylpyrazol-4-yl)triazolo[4,5-d]pyrimidine], for which the EC50 in experiment [1] was 17.4 nM; in experiment [2], more than 10000 nM.

Consider `Cn1nccc1-c1nc(C(C)(C)C)nc2c1nnn2CC1(C)COC1` [Example 23, 5-tert-butyl-3-[(3-methyloxetan-3-yl)methyl]-7-(2-methylpyrazol-3-yl)triazolo[4,5-d]pyrimidine], for which the EC50 in experiment [1] was 445 nM; in experiment [2], more than 10000 nM.

On to `COc1ccc(-c2nc(C(C)(C)C)nc3c2nnn3Cc2ccccc2Cl)cc1` [Example 3, 5-tert-butyl-3-[(2-chlorophenyl)methyl]-7-(4-methoxyphenyl)triazolo[4,5-d]pyrimidine], for which the EC50 is 239 nM in experiment [1] and more than 10000 nM in experiment [2].

Consider `CC(C)(C)c1nc(C2(O)CCCCC2)c2nnn(Cc3ccccc3Cl)c2n1` [Example 35, 1-[5-tert-Butyl-3-[(2-chlorophenyl)methyl]triazolo[4,5-d]pyrimidin-7-yl]cyclohexanol], for which the EC50 in experiment [1] is 172 nM; in experiment [2] it was more than 10000 nM.

Turning to `Cc1ccc(-c2nc(C(C)(C)C)nc3c2nnn3Cc2ccccc2Cl)nc1` [Example 7, 5-tert-butyl-3-[(2-chlorophenyl)methyl]-7-(5-methylpyridin-2-yl)triazolo[4,5-d]pyrimidine], the figures for the EC50 in experiment [1] and in experiment [2] were 488 nM and more than 10000 nM, respectively.

In the case of `CC(C)(C)c1nc(C2(O)CCC2)c2nnn(Cc3ccccc3)c2n1` [Example 31, 1-(3-Benzyl-5-tert-butyltriazolo[4,5-d]pyrimidin-7-yl)cyclobutan-1-ol], the concentration for a half-maximal effect (EC50) in experiment [1] came out at 4.5 nM; in experiment [2], 645 nM.

Consider `Cn1nccc1-c1nc(C(C)(C)C)nc2c1nnn2Cc1ncccc1Cl` [Example 21, 5-tert-butyl-3-[(3-chloropyridin-2-yl)methyl]-7-(2-methylpyrazol-3-yl)triazolo[4,5-d]pyrimidine], for which the values for the concentration for a half-maximal effect (EC50) in experiment [1] and in experiment [2] were 39.5 nM and more than 10000 nM, respectively.

With `CC(C)(C)c1nc(C2=CCCC2)c2nnn(Cc3ccccc3Cl)c2n1` [Example 44, 5-tert-Butyl-3-[(2-chlorophenyl)methyl]-7-(cyclopenten-1-yl)triazolo[4,5-d]pyrimidine], the EC50 in experiment [1] was 4 nM; in experiment [2], more than 10000 nM.

Consider `Cn1nccc1-c1nc(C(C)(C)C)nc2c1nnn2CC(C)(C)O` [Example 22, 1-[5-tert-butyl-7-(2-methylpyrazol-3-yl)triazolo[4,5-d]pyrimidin-3-yl]-2-methylpropan-2-ol], for which the EC50 in experiment [1] is 206 nM; in experiment [2], more than 10000 nM.

In the case of `CC(C)(C)c1nc(C2(O)CCCCCC2)c2nnn(Cc3ccccc3Cl)c2n1` [Example 36, 1-[5-tert-Butyl-3-[(2-chlorophenyl)methyl]triazolo[4,5-d]pyrimidin-7-yl]cycloheptanol], the results for the EC50 in experiment [1] and in experiment [2] were 17.3 nM and more than 10000 nM, respectively.

Turning to `Cn1nccc1-c1nc(C(C)(C)C)nc2c1nnn2C1CCOC1` (stereo not shown) [Example 18, 5-tert-butyl-7-(2-methylpyrazol-3-yl)-3-(oxolan-3-yl)triazolo[4,5-d]pyrimidine], the EC50 is 86 nM in experiment [1] and more than 10000 nM in experiment [2].
